In PubChem BioAssay (NCI):
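Assay format: 96-well plates, 48-hour exposure. Abbreviation: GI50, concentration required for 50% inhibition of growth. TGI marks complete inhibition of growth.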 Where a SMILES comes first, the peptide text is derived from it. [ ]: non-standard residue; d: D form. The star is where a group is joined. NMeF = CN[CH](Cc1ccccc1)C(=O)O; NMeV = CN[CH](C(=O)O)C(C)C; Boc = CC(C)(C)OC(=O)*; OBn = c1ccc(CO*)cc1

Tests used:
Test in all cases: inhibition of tumour cell growth, NCI panel, 48 h
K-562 leukemia = system: K-562 leukemia
UO-31 renal = system: UO-31 renal
SK-MEL-5 melanoma = system: SK-MEL-5 melanoma
MALME-3M melanoma = system: MALME-3M melanoma
SK-MEL-28 melanoma = system: SK-MEL-28 melanoma
NCI-H460 lung = system: NCI-H460 lung
HCT-116 colon = system: HCT-116 colon
T-47D breast = system: T-47D breast
HL-60(TB) leukemia = system: HL-60(TB) leukemia
RXF 393 renal = system: RXF 393 renal

O=C(NN=C1CCCCC1)Nc1ccccc1Cl
TGI (K-562 leukemia): > 100 µM
TGI (UO-31 renal): > 100 µM
TGI (SK-MEL-5 melanoma): > 100 µM
TGI (MALME-3M melanoma): > 100 µM
TGI (SK-MEL-28 melanoma): > 100 µM
TGI (NCI-H460 lung): > 100 µM
TGI (HCT-116 colon): > 100 µM
TGI (T-47D breast): > 100 µM
TGI (HL-60(TB) leukemia): > 100 µM

C=C1c2nc3ccccc3n2C=C(c2ccc(Cl)cc2)N1c1ccccc1
TGI (K-562 leukemia): > 100 µM
TGI (UO-31 renal): 32.9 µM
TGI (SK-MEL-5 melanoma): > 100 µM
TGI (MALME-3M melanoma): 27 µM
TGI (RXF 393 renal): 49.5 µM
TGI (SK-MEL-28 melanoma): 24 µM
TGI (NCI-H460 lung): 24.9 µM
TGI (HCT-116 colon): 33.7 µM
TGI (HL-60(TB) leukemia): > 100 µM

CC(C)C(NC(=O)OC(C)(C)C)C(=O)N(C)C(Cc1ccccc1)C(=O)N(C)C(C(=O)N(C)C(C(=O)OCc1ccccc1)C(C)C)C(C)C (stereo unspecified) (Boc-V[NMeF][NMeV][NMeV]-OBn; configuration not given here)
TGI (K-562 leukemia): > 100 µM
TGI (UO-31 renal): > 100 µM
TGI (SK-MEL-5 melanoma): > 100 µM
TGI (MALME-3M melanoma): > 100 µM
TGI (NCI-H460 lung): > 100 µM
TGI (HCT-116 colon): > 100 µM
TGI (HL-60(TB) leukemia): > 100 µM

O=C1c2ccccc2C2(c3ccc(Cl)cc3)NCc3ccccc3CN12 (stereo unspecified)
TGI (K-562 leukemia): > 100 µM
TGI (UO-31 renal): 78.1 µM
TGI (SK-MEL-5 melanoma): 29.5 µM
TGI (RXF 393 renal): 29.6 µM
TGI (SK-MEL-28 melanoma): > 100 µM
TGI (NCI-H460 lung): 91.5 µM
TGI (HCT-116 colon): 22.6 µM
TGI (T-47D breast): 49.9 µM
TGI (HL-60(TB) leukemia): 40.6 µM

COC(=O)C[C@H](COCc1ccccc1)NC(=O)C[C@H](COCc1ccccc1)NC(=O)C[C@H](COCc1ccccc1)NC(=O)OC(C)(C)C
TGI (K-562 leukemia): > 100 µM
TGI (UO-31 renal): > 100 µM
TGI (SK-MEL-5 melanoma): > 100 µM
TGI (MALME-3M melanoma): > 100 µM
TGI (RXF 393 renal): 72 µM
TGI (SK-MEL-28 melanoma): > 100 µM
TGI (HCT-116 colon): 67 µM
TGI (T-47D breast): > 100 µM
TGI (HL-60(TB) leukemia): > 100 µM

CSC(=S)N(C)NC(=O)c1cccc(C(=O)NN(C)C(=S)SC)n1
TGI (K-562 leukemia): > 100 µM
TGI (SK-MEL-5 melanoma): > 100 µM
TGI (RXF 393 renal): 74.4 µM
TGI (SK-MEL-28 melanoma): > 100 µM
TGI (NCI-H460 lung): > 100 µM
TGI (HCT-116 colon): > 100 µM
TGI (HL-60(TB) leukemia): 48.3 µM

O=C(Nc1ccc2ccccc2c1)Nn1cnnc1
TGI (K-562 leukemia): > 100 µM
TGI (UO-31 renal): > 100 µM
TGI (SK-MEL-5 melanoma): > 100 µM
TGI (MALME-3M melanoma): > 100 µM
TGI (SK-MEL-28 melanoma): > 100 µM
TGI (NCI-H460 lung): > 100 µM
TGI (HCT-116 colon): > 100 µM
TGI (T-47D breast): > 100 µM
TGI (HL-60(TB) leukemia): > 100 µM

O=C1C[C@H](c2ccccc2)C2(C(=O)c3ccccc3C2=O)[C@@H](c2ccccc2)C1
TGI (K-562 leukemia): > 100 µM
TGI (UO-31 renal): > 100 µM
TGI (SK-MEL-5 melanoma): 31 µM
TGI (MALME-3M melanoma): > 100 µM
TGI (RXF 393 renal): > 100 µM
TGI (SK-MEL-28 melanoma): > 100 µM
TGI (NCI-H460 lung): > 100 µM
TGI (T-47D breast): > 100 µM
TGI (HL-60(TB) leukemia): > 100 µM

Sc1nnc(-c2ccccc2Nc2ccccc2-c2nnc(S)n2-c2ccccc2)n1-c1ccccc1
TGI (K-562 leukemia): > 100 µM
TGI (UO-31 renal): > 100 µM
TGI (SK-MEL-5 melanoma): 80.9 µM
TGI (RXF 393 renal): > 100 µM
TGI (SK-MEL-28 melanoma): 44.7 µM
TGI (NCI-H460 lung): > 100 µM
TGI (HCT-116 colon): > 100 µM
TGI (T-47D breast): 88.2 µM
TGI (HL-60(TB) leukemia): 67.1 µM

CC(/C=N/NC1=NCCCCN1)=N\NC1=NCCCCN1
TGI (K-562 leukemia): > 100 µM
TGI (UO-31 renal): > 100 µM
TGI (SK-MEL-5 melanoma): > 100 µM
TGI (MALME-3M melanoma): 84 µM
TGI (RXF 393 renal): > 100 µM
TGI (SK-MEL-28 melanoma): > 100 µM
TGI (NCI-H460 lung): > 100 µM
TGI (HCT-116 colon): > 100 µM
TGI (T-47D breast): > 100 µM

CC(NC(=O)C(C)C(=O)NCc1ccc(C(F)(F)F)cc1)C(N)=O (stereo unspecified)
TGI (K-562 leukemia): > 100 µM
TGI (UO-31 renal): > 100 µM
TGI (SK-MEL-5 melanoma): > 100 µM
TGI (MALME-3M melanoma): > 100 µM
TGI (RXF 393 renal): > 100 µM
TGI (NCI-H460 lung): > 100 µM
TGI (HCT-116 colon): > 100 µM
TGI (T-47D breast): > 100 µM
TGI (HL-60(TB) leukemia): > 100 µM

Cc1cccc2c(N)c3cccc(C(=O)NCC[N+](C)(C)Cc4sc(N5CCOCC5)nc4[N+](=O)[O-])c3nc12
TGI (K-562 leukemia): > 100 µM
TGI (UO-31 renal): 35.7 µM
TGI (SK-MEL-5 melanoma): > 100 µM
TGI (MALME-3M melanoma): 24.7 µM
TGI (RXF 393 renal): 20.8 µM
TGI (SK-MEL-28 melanoma): > 100 µM
TGI (HCT-116 colon): 20.6 µM
TGI (T-47D breast): > 100 µM

CN(C)c1nc(N(C)C)nc(N(C)CN(C)c2nc(N(C)C)nc(N(C)C)n2)n1
TGI (K-562 leukemia): > 100 µM
TGI (UO-31 renal): > 100 µM
TGI (SK-MEL-5 melanoma): > 100 µM
TGI (MALME-3M melanoma): > 100 µM
TGI (RXF 393 renal): > 100 µM
TGI (SK-MEL-28 melanoma): > 100 µM
TGI (NCI-H460 lung): > 100 µM
TGI (HCT-116 colon): > 100 µM
TGI (HL-60(TB) leukemia): > 100 µM

COc1ccc(C2C(C(=O)O)=C(COC(C)=O)Oc3cc4c(cc32)OCO4)cc1 (stereo unspecified)
TGI (K-562 leukemia): > 100 µM
TGI (UO-31 renal): > 100 µM
TGI (SK-MEL-5 melanoma): > 100 µM
TGI (MALME-3M melanoma): > 100 µM
TGI (RXF 393 renal): > 100 µM
TGI (SK-MEL-28 melanoma): > 100 µM
TGI (NCI-H460 lung): > 100 µM
TGI (HCT-116 colon): > 100 µM
TGI (HL-60(TB) leukemia): > 100 µM

CC(C)C(/C=C/c1ccccc1)=N\NC(=O)N/N=C(/C=C/c1ccccc1)C(C)C
TGI (K-562 leukemia): > 100 µM
TGI (UO-31 renal): 93 µM
TGI (SK-MEL-5 melanoma): 53.7 µM
TGI (SK-MEL-28 melanoma): > 100 µM
TGI (NCI-H460 lung): 33.4 µM
TGI (HCT-116 colon): 45 µM
TGI (HL-60(TB) leukemia): 45.9 µM

CC1CCC2c3c([nH]c4ccccc34)C3C(=O)N(C4CCCCC4)C(=O)C3C2C1 (stereo unspecified)
TGI (K-562 leukemia): 47.2 µM
TGI (UO-31 renal): 37.2 µM
TGI (SK-MEL-5 melanoma): 36.1 µM
TGI (MALME-3M melanoma): > 100 µM
TGI (RXF 393 renal): 28.9 µM
TGI (SK-MEL-28 melanoma): 34.1 µM
TGI (NCI-H460 lung): > 100 µM
TGI (HCT-116 colon): 24.2 µM
TGI (HL-60(TB) leukemia): > 100 µM

CC[C@@]1(O)C(=O)OCc2c1cc1n(c2=O)Cc2c-1nc1ccccc1c2/C=N\NC(=O)C(N)CS (stereo partly specified)
TGI (K-562 leukemia): > 100 µM
TGI (UO-31 renal): 14.7 µM
TGI (SK-MEL-5 melanoma): 3.9 µM
TGI (MALME-3M melanoma): > 100 µM
TGI (RXF 393 renal): 10.2 µM
TGI (SK-MEL-28 melanoma): > 100 µM
TGI (NCI-H460 lung): > 43.6 µM
TGI (HCT-116 colon): > 100 µM
TGI (HL-60(TB) leukemia): > 100 µM

Cc1ccc([N+](=O)[O-])cc1S(=O)(=O)Nc1ccc(C2=NN(c3ccc([N+](=O)[O-])cc3[N+](=O)[O-])C(c3ccccc3O)C2)cc1 (stereo unspecified)
TGI (K-562 leukemia): > 100 µM
TGI (UO-31 renal): > 100 µM
TGI (SK-MEL-5 melanoma): 61.1 µM
TGI (MALME-3M melanoma): > 100 µM
TGI (RXF 393 renal): > 100 µM
TGI (SK-MEL-28 melanoma): > 100 µM
TGI (HCT-116 colon): > 100 µM
TGI (T-47D breast): > 100 µM
TGI (HL-60(TB) leukemia): > 100 µM

Cc1ccc(O)c(Cc2nc3ccccc3nc2-c2cccc(Br)c2)c1
TGI (K-562 leukemia): > 100 µM
TGI (UO-31 renal): > 100 µM
TGI (SK-MEL-5 melanoma): > 100 µM
TGI (MALME-3M melanoma): > 100 µM
TGI (RXF 393 renal): > 100 µM
TGI (NCI-H460 lung): > 100 µM
TGI (HCT-116 colon): > 100 µM
TGI (T-47D breast): > 100 µM
TGI (HL-60(TB) leukemia): > 100 µM

CC(=O)Nc1ccc(-c2nnc(SCC(=O)Nc3ccccc3[N+](=O)[O-])o2)cc1
TGI (K-562 leukemia): > 100 µM
TGI (UO-31 renal): > 100 µM
TGI (SK-MEL-5 melanoma): > 100 µM
TGI (MALME-3M melanoma): > 100 µM
TGI (RXF 393 renal): > 100 µM
TGI (SK-MEL-28 melanoma): > 100 µM
TGI (NCI-H460 lung): > 100 µM
TGI (HCT-116 colon): > 100 µM
TGI (HL-60(TB) leukemia): > 100 µM

O=C(/C=C/c1cccs1)c1ccsc1
TGI (K-562 leukemia): 89.8 µM
TGI (UO-31 renal): 32.4 µM
TGI (SK-MEL-5 melanoma): 36 µM
TGI (MALME-3M melanoma): 59 µM
TGI (SK-MEL-28 melanoma): 81.7 µM
TGI (NCI-H460 lung): 60.4 µM
TGI (T-47D breast): 72 µM
TGI (HL-60(TB) leukemia): 42.1 µM

NCCCn1c2c(c3ccc([N+](=O)[O-])cc3c1=O)C(=O)c1cc3c(cc1-2)OCO3
GI50 (K-562 leukemia): 0.0581 µM
GI50 (UO-31 renal): < 0.01 µM
TGI (UO-31 renal): 0.2 µM
GI50 (SK-MEL-5 melanoma): 0.0273 µM
TGI (SK-MEL-5 melanoma): 0.247 µM
GI50 (MALME-3M melanoma): 0.488 µM
TGI (MALME-3M melanoma): 2.82 µM
GI50 (HCT-116 colon): > 100 µM
TGI (HCT-116 colon): > 100 µM
GI50 (HL-60(TB) leukemia): < 0.0155 µM
